Measured values taken from PubChem BioAssay (NCI).
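Five compound concentrations were applied to cells in 96-well plates for 48 hours; endpoints were derived by simple linear interpolation of the resulting dose-response curve. TGI: total growth inhibition.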

How the values were obtained:
Assay in all cases: NCI tumour cell line growth inhibition, 48 h
XF 498 CNS = system: XF 498 CNS
SR leukemia = system: SR leukemia
NCI-H226 lung = system: NCI-H226 lung
HCC-2998 colon = system: HCC-2998 colon
MOLT-4 leukemia = system: MOLT-4 leukemia
M19-MEL melanoma = system: M19-MEL melanoma
ACHN renal = system: ACHN renal
KM20L2 colon = system: KM20L2 colon
OVCAR-3 ovarian = system: OVCAR-3 ovarian
HCT-116 colon = system: HCT-116 colon
SF-268 CNS = system: SF-268 CNS
A498 renal = system: A498 renal
SW-620 colon = system: SW-620 colon
MALME-3M melanoma = system: MALME-3M melanoma
UO-31 renal = system: UO-31 renal
DLD-1 colon = system: DLD-1 colon
SK-MEL-5 melanoma = system: SK-MEL-5 melanoma
HOP-92 NSCLC = system: HOP-92 NSCLC
OVCAR-5 ovarian = system: OVCAR-5 ovarian
UACC-62 melanoma = system: UACC-62 melanoma
HOP-62 NSCLC = system: HOP-62 NSCLC
M14 melanoma = system: M14 melanoma
786-0 renal = system: 786-0 renal
DMS 114 small cell lung = system: DMS 114 small cell lung
U251 CNS = system: U251 CNS
SF-295 CNS = system: SF-295 CNS
NCI-H522 lung = system: NCI-H522 lung
SK-OV-3 ovarian = system: SK-OV-3 ovarian
SNB-75 CNS = system: SNB-75 CNS
A549 NSCLC = system: A549 NSCLC
NCI-H460 lung = system: NCI-H460 lung
HL-60(TB) leukemia = system: HL-60(TB) leukemia
K-562 leukemia = system: K-562 leukemia
RXF 393 renal = system: RXF 393 renal
LOX IMVI melanoma = system: LOX IMVI melanoma
HCT-15 colon = system: HCT-15 colon
OVCAR-4 ovarian = system: OVCAR-4 ovarian
KM12 colon = system: KM12 colon
SNB-78 CNS = system: SNB-78 CNS
COLO 205 colon = system: COLO 205 colon
SNB-19 CNS = system: SNB-19 CNS
OVCAR-8 ovarian = system: OVCAR-8 ovarian
LXFL 529 NSCLC = system: LXFL 529 NSCLC
SK-MEL-2 melanoma = system: SK-MEL-2 melanoma
IGROV1 ovarian = system: IGROV1 ovarian
RPMI-8226 leukemia = system: RPMI-8226 leukemia
NCI-H23 lung = system: NCI-H23 lung
CCRF-CEM leukemia = system: CCRF-CEM leukemia
CAKI-1 renal = system: CAKI-1 renal
EKVX NSCLC = system: EKVX NSCLC
HT29 colon = system: HT29 colon
SN12C renal = system: SN12C renal
HOP-18 NSCLC = system: HOP-18 NSCLC
SF-539 CNS = system: SF-539 CNS
SK-MEL-28 melanoma = system: SK-MEL-28 melanoma
UACC-257 melanoma = system: UACC-257 melanoma

Measured: TGI

NN1C(=O)C(CCO)S/C1=N/N=C1/SC(CCO)C(=O)N1N (stereo unspecified)
> 100 µM: XF 498 CNS | SR leukemia | NCI-H226 lung | HCC-2998 colon | MOLT-4 leukemia | M19-MEL melanoma | ACHN renal | KM20L2 colon | OVCAR-3 ovarian | HCT-116 colon | SF-268 CNS | A498 renal | SW-620 colon | MALME-3M melanoma | UO-31 renal | DLD-1 colon | SK-MEL-5 melanoma | HOP-92 NSCLC | OVCAR-5 ovarian | UACC-62 melanoma | HOP-62 NSCLC | M14 melanoma | 786-0 renal | DMS 114 small cell lung | U251 CNS | SF-295 CNS | NCI-H522 lung | SK-OV-3 ovarian | SNB-75 CNS | A549 NSCLC | NCI-H460 lung | HL-60(TB) leukemia | K-562 leukemia | RXF 393 renal | LOX IMVI melanoma | HCT-15 colon | OVCAR-4 ovarian | KM12 colon | SNB-78 CNS | COLO 205 colon | SNB-19 CNS | OVCAR-8 ovarian | LXFL 529 NSCLC | SK-MEL-2 melanoma | IGROV1 ovarian | RPMI-8226 leukemia | NCI-H23 lung | CCRF-CEM leukemia | CAKI-1 renal | EKVX NSCLC | HT29 colon | SN12C renal | HOP-18 NSCLC | SF-539 CNS | SK-MEL-28 melanoma | UACC-257 melanoma
